Data from patent US8629251B2, “Specific detection and quantification of phosphatidic acid using an Arabidopsis trigalactosyldiacylglycerol-4 (TGD4) protein” (Board of Trustees of Michigan State University, priority 2008, dated 2014).
Where no end group is shown, it is not given here.

Key:
[1] = molecular target: T1, Arabidopsis TGD4, DsRED-TGD4-His, full-length TGD4 1-479 (SEQ ID NO: 132) (Arabidopsis thaliana, UniProt Q9M903); assay: Liposome association assay, DsRED-TGD4-His; type: binding; details: 40 mol % PtdOH and 60 mol % PtdCho liposomes, FIG. 18C, D
T1 sequence (Q9M903 1-479): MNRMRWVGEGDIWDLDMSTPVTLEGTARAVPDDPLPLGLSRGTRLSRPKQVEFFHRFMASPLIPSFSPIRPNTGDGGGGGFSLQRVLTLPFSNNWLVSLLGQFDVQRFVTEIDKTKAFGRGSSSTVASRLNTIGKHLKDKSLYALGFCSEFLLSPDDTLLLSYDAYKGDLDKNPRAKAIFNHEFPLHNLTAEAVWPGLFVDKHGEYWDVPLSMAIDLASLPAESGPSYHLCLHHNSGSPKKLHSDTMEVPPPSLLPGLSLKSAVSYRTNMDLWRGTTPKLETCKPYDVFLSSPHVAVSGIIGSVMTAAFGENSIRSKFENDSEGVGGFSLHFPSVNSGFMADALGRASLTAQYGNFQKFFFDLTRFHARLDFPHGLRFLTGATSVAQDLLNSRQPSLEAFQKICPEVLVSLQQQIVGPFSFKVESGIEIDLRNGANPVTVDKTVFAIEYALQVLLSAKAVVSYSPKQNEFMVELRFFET
Method: Liposome Association Assay:
(§1) The liposome association assay was adapted from (Awai et al., 2006, Lu and Benning, 2009) with minor modifications. Dioleoyl-PtdCho and PtdOH with different acyl chain lengths and desaturation levels were used for making liposomes. In other liposomes 1-palmitoyl-2-(12-((7-nitro-2-1,3-benzoxadiazol-4-yl)amino)dodecanoyl)-sn-glycero-3-phosphate (NBD-PtdOH; Avanti, Alabaster, Ala.) was used. The lipids were mixed at indicated ratios to give a total lipid amount of 250 μg. The lipids were dried under a stream of nitrogen, resuspended in 0.5 ml TBS buffer with 0.2 M choline chloride and hydrated at 37° C. for 1 hour followed by vigorous vortexing for 2 minutes. The resulting multi-lamellar vesicles were centrifuged at 13,000×g for 10 minutes and then washed once with TBS buffer containing 0.2 M choline chloride. The liposomes were resuspended into 100 μl TBS buffer with 0.2 M choline chloride and incubated with 2 μg purified DsRED-TGD4-His protein and its derivatives. The protein liposome mixture was incubated on ice for 30 minutes followed by centrifugation at 13,000×g for 10 minutes and two washes with 500 μl TBS containing 0.2 M choline chloride. The resulting protein-liposome pellet was resuspended in 20 μl 2× Laemmli buffer (Laemmli, 1970) and processed by SDS-PAGE (Shapiro and Maizel, 1969).

DsRED-TGD4-His = molecular target: T2, DsRED-TGD4-His (Arabidopsis thaliana, UniProt Q9M903); assay: Precipitation / stabilizer test of DsRED-TGD4-His; type: physicochemical; details: 5 μg protein with stabilizer, 4° C., 2 hours, 13,000×g pellet by SDS-PAGE
T2 construct: the DsRED protein was fused to the N-terminus of the full-length TGD4 protein; made in house; host or cells: E. coli BL21 (DE3)
T2 sequence (Q9M903 1-479): T1 sequence (Q9M903 1-479)
Method: FIG. 23A: 5 μg DsRED-TGD4-His was incubated with various protein stabilizers at 4° C. for 2 hours followed by centrifugation at 13,000×g for 10 minutes. The pellet was analyzed by SDS-PAGE. TBS: Tris-buffered saline, Glycerol: 20% glycerol; PEG: 20% polyethylene; Pectin: 5% pectin; ChoCl: 1 M choline chloride; Glycine: 1 M glycine; Urea: 1 M urea; BSA: 0.5 mg/ml bovine serum albumin; PBS: phosphate-buffered saline.
FIG. 23B: 5 μg DsRED-TGD4-His was treated with either 2 M sodium chloride or choline chloride as described above.
Lipid binding properties of TGD4 were investigated by producing TGD4 fused to DsRED. The DsRED protein is a red fluorescent protein of the coral Discosoma sp. (Gross et al., 2000, herein incorporated by reference).

[2] = Liposome-association assay of DsRed-TGD2 fusion proteins; type: binding; details: PA/PC or 100% PA liposomes
Method: In this assay, purified recombinant proteins were incubated with liposomes for 30 min at 30° C. before centrifugation at 20,000 g for 10 min to pellet the liposomes. Proteins bound to the liposomes were found associated with the lipid pellet, whereas non-binding proteins remained in the supernatant. In an effort to determine the optimal concentration of PA required for high specificity binding, a PA/PC liposome mixture containing varying weight fractions of PA was prepared and incubated with DsRed-TGD2CWT or DsRed alone.
The liposome association assay was performed as previously reported. (31). Briefly, lipids (dioleoyl-phosphatidylcholine, DOPC or dioleoyl-PA, DOPA) were incubated in TBS (50 mM Tris-HCl, pH 7; 0.1 M NaCl) at 37° C. for an hour followed by vigorous vortexing for 5 min. The liposomes were precipitated at 20,000 g and washed twice with ice-cold TBS.
Liposomes (200 μg) were mixed with purified DsRed-TGD2 fusion protein and TBS to make a final 100 μL solution. […] The liposome pellet mixed with sample buffer was analyzed by SDS-PAGE (28). […]
The protein band was visualized by chemiluminescent detection kit from Sigma. The autoradiography film was scanned, distinct protein bands were quantified using computer software Multi Gauge V3.0 (Fujifilm USA, Valhalla, N.Y.) and resulted data were plotted and analyzed by OriginPro8 (Origin lab corporation, Northampton, Mass.).

[3] = Protein-lipid overlay assay of DsRED-TGD4 fusion proteins; type: binding
Method: The protein-lipid overlay assay was modified from (Awai et al., 2006, Lu and Benning, 2009). Phosphoinositol-4,5-bisphosphate PIP2) lipid strips were purchased from Echelon Biosciences (Salt Lake City, Utah). Lipids spotted onto membranes were purchased from Avanti Polar Lipids (Alabaster, Al.) as well as Larodan Fine Chemicals (Malmo, Sweden). Lipids (10 nmol) were suspended in 20 μl spotting buffer (250 μl chloroform, 500 μl methanol, 200 μl 50 mM HCl, 2 μl 1% (w/v) Ponseau S (Sigma, St. Louis, Mo.)) and spotted onto Amersham Hybond-C Extra membranes (GE Healthcare, Piscataway, N.J.) followed by drying for 1 hour in a fume hood. The lipid membranes were then blocked in 3% (w/v) bovine serum albumin (BSA) in TBST buffer (TBS with 0.25% (v/v) Tween 20) for 2 hours at room temperature. Purified DsRED-TGD4-His fusion proteins were added at 1 μg/ml final concentration and incubated overnight at 4° C. followed by washing 3 times in TBST. Lipid membranes were then incubated with 1:2000 diluted His antibody (Sigma) in blocking buffer for 2 hours at room temperature followed by 2 washes with TBST. The membranes were processed for immunoblotting as described below.

[4] = Liposome association assay of DsRED-TGD4-His and derivatives; type: binding; details: dioleoyl-PtdOH/dioleoyl-PtdCho liposomes, 0 to 80% PtdOH by weight, FIG. 19
Method: as §1

Question: For CCCCCCCCCCCCCCCC(=O)OC[C@H](COP(=O)(O)O)OC(=O)CCCCCCCCCCCNc1ccc([N+](=O)[O-])c2nonc12 [1-palmitoyl-2-(12-((7-nitro-2-1,3-benzoxadiazol-4-yl)amino)dodecanoyl)-sn-glycero-3-phosphate], which “binding to PtdOH species in liposomes” value [1] is on record?
Answer: Its value is “did not bind”.

Question: For C[N+](C)(C)CCO.[Cl-] [Choline chloride, choline chloride], which “stabilization of DsRED-TGD4-His against precipitation” value (“stabilization of DsRED-TGD4-His” for short) (DsRED-TGD4-His) is on record?
Answer: The value was “minimize precipitation”.

Question: What about the “stabilization of DsRED-TGD4-His” value (DsRED-TGD4-His; listed as choline chloride) of the same molecule?
Answer: Its value is “stabilized DsRED-TGD4-His”.

Question: For [Cl-].[Na+] [NaCl, sodium chloride], which “stabilization of DsRED-TGD4-His” value (DsRED-TGD4-His) is on record?
Answer: The value was “not able to stabilize DsRED-TGD4-His”.

Question: Which “binding to PtdOH species in liposomes” value [1] does the source give for CCCCCCCCCCCCCCCC(=O)OC[C@H](COP(=O)(O)O)OC(=O)CCCCCCCCCCCCCCC [dipalmitoyl PtdOH, dipalmitoyl phosphatidic acid] here?
Answer: The value was “bind”.

Question: Which “binding to PtdOH species in liposomes” value [1] does the source give for CCCCCCCCCCCCCCCCCC(=O)OC[C@H](COP(=O)(O)O)OC(=O)CCCCCCCCCCCCCCCCC [distearoyl PtdOH, distearoyl phosphatidic acid] here?
Answer: Its value is “appeared to be stronger”.

Question: Which results are given for “DR-25: DsRed fused to the TGD2 minimal PA binding domain, residues 201-225 (SEQ ID NO: 12) (IMPRNPIPEPSVGPLHPECGKEGLI; also: fused to DsRed, end not given here; UniProt Q9LTR2 201-225, looked up, fragment)”?
Answer: PA binding in liposome-association assay ([2]; listed as 25-amino-acid segment): necessary and sufficient for PtdOH binding; PA binding in liposome-association assay ([2]; listed as region between residues 201 and 225 (SEQ ID NO:12)): much less overall binding

B1: DsRED-His: DsRED-His protein itself, control without TGD4 (protein, UniProt Q9U6Y8 1-225, looked up)
Red fluorescent protein …: MRSSKNVIKEFMRFKVRMEGTVNGHEFEIEGEGEGRPYEGHNTVKLKVTKGGPLPFAWDILSPQFQYGSKVYVKHPADIPDYKKLSFPEGFKWERVMNFEDGGVVTVTQDSSLQDGCFIYKVKFIGVNFPSDGPVMQKKTMGWEASTERLYPRDGVLKGEIHKALKLKDGGHYLVEFKSIYMAKKPVQLPGYYYVDSKLDITSHNEDYTIVEQYERTEGRHHLFL
modifications: His-tag
notes: DsRED-His protein itself, control without TGD4
Question: Which results are given for B1?
Answer: lipid binding in overlay, phospholipids ([3]; commercially available membranes, FIG. 18A): not observed to bind to any of the lipids on either membrane tested; lipid binding in overlay, plant/chloroplast lipids ([3]; lipids manually spotted onto membranes, FIG. 18B): not observed to bind to any of the lipids on either membrane tested; PtdOH binding affinity of TGD4 derivatives [4]: Except for DsRED-His alone, tested recombinant fusion proteins bound to PtdOH-containing liposomes
